Tested on: Vγ9Vδ2 T cells
Experiment: Production of IFN-γ, TNF and GM-CSF, ELISA of culture supernatants
Assay type: cell-based, human
Experimental: Supernatants of the culture solutions having various conditions under which Vγ9Vδ2 T cells were cultured were assayed by ELISA so that the production of cytokines (e.g., IFN-γ, TNF, GM-CSF) was measured.
The Vγ9Vδ2 T cells were restimulated both in the presence of IL-18 and in the absence of IL-18. After 24 hours, a supernatant of the culture solution containing IL-18 and a supernatant of the culture solution devoid of IL-18 were compared. In this case also, the result obtained was similar to the above.

[1] = purified activated Vγ9Vδ2 T cells restimulated, 24 hours

Substance: IL-18: interleukin 18, cytokine, IFN-γ inducing factor, obtained from GlaxoSmithKline K.K.
- production of GM-CSF, supernatant supplemented with IL-18 versus without (data not shown): about 10 times
- production of IFN-γ, presence versus absence of IL-18 [1]: far larger production
- production of TNFα, presence versus absence of IL-18 [1]: far larger production

Reference: patent publication US7749760B2, “Vγ9Vδ2 T cell proliferation agent, method for producing activated Vγ9Vδ2 T cells, and uses thereof” (Hyogo College of Medicine, priority 2008, dated 2010)
